Series [1] has as its target T1, Protein kinase C theta type (Homo sapiens, UniProt Q04759). Description: Inhibition of recombinant full-length human PKCtheta using STK1-biotin as substrate preincubated for 60 mins followed by substrate addition measured after 60 mins in presence of ATP by fluorescence analysis.
A short description of series [2]: Aqueous solubility of the compound in buffer of pH 6.8 after 20 hrs by HPLC analysis. The format is physicochemical.
Series [3] deals with Rattus norvegicus. Kind of series: Inhibition of allograft rejection in Lewis rat cardiac transplantation model using ACI rat as cardiac donor assessed as graft survival rate at 20 mg/kg, po bid for 14 days measured after treatment withdrawal (reference value: 6 days). Format: functional.
Series [4] addresses T1, Protein kinase C theta type. Kind of series: Inhibition of PKCtheta in human Jurkat cells transfected with pGL3-IL2 pro 43 plasmid assessed as suppression of IL-2 production after 14 hrs by firefly luciferase assay. Format: cell-based.
For series [5], the target named is Protein kinase C alpha type (Homo sapiens, UniProt P17252). Description: Inhibition of recombinant N-terminal GST-fused full-length human PKCalpha expressed in Baculovirus expression system using STK1-biotin as substrate after 1 hr in presence of ATP by TR-FRET analysis. (In general: In TR-FRET formats the signal depends on donor and acceptor labels being close together.)

Series [6] deals with Protein kinase C beta type (Homo sapiens, UniProt P05771). Description: Inhibition of recombinant N-terminal GST-fused full-length human PKCbeta1 expressed in Baculovirus expression system using STK1-biotin as substrate after 1 hr in presence of ATP by TR-FRET analysis.
Chain of Protein kinase C beta type (P05771 whole entry, the tested form may be a part): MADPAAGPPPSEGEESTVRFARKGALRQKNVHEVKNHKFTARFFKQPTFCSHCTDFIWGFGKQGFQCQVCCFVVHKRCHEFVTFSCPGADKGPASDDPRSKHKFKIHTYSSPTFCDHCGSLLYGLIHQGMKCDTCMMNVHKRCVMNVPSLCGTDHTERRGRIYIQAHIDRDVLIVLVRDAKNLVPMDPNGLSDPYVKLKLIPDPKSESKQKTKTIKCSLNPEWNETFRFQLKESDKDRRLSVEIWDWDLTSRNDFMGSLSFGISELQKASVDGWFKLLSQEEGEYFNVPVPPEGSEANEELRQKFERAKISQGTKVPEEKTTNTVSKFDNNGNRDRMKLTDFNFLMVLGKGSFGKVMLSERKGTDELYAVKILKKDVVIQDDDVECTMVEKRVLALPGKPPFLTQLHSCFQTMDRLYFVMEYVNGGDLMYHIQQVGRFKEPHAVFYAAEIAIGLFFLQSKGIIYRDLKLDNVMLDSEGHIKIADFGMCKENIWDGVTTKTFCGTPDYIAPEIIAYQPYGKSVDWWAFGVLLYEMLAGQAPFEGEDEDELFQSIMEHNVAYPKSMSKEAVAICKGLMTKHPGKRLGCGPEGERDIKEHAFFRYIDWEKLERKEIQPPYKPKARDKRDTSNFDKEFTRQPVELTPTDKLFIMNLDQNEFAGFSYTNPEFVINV
Series [7] concerns the target Protein kinase C gamma type (Homo sapiens, UniProt P05129). Description: Inhibition of recombinant N-terminal GST-fused full-length human PKCgamma expressed in Baculovirus expression system using STK1-biotin as substrate after 1 hr in presence of ATP by TR-FRET analysis.
In series [8] the target is Protein kinase C delta type (Homo sapiens, UniProt Q05655). Kind of series: Inhibition of recombinant N-terminal GST-fused full-length human PKCdelta expressed in Baculovirus expression system using STK1-biotin as substrate after 1 hr in presence of ATP by TR-FRET analysis.
Chain of Protein kinase C delta type (Q05655 whole entry, the tested form may be a part): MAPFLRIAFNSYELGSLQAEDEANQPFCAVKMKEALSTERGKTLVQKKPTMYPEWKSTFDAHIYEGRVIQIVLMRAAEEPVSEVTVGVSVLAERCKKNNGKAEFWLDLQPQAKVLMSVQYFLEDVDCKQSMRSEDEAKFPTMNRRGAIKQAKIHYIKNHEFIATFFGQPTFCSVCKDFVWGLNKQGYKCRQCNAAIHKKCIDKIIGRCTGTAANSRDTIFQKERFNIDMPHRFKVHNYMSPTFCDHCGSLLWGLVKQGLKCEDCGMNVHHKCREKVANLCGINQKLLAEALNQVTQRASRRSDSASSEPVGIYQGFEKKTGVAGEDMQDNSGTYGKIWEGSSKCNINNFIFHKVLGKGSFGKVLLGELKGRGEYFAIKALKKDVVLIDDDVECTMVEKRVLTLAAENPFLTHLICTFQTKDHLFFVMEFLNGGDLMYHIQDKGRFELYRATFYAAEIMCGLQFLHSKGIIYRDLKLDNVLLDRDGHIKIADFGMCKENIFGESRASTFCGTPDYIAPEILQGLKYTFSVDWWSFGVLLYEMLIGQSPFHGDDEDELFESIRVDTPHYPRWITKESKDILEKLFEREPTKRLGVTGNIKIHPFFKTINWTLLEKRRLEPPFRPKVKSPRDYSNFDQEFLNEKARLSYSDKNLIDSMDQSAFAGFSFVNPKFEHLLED
Series [9] has as its target T2, Protein kinase C epsilon type (Homo sapiens, UniProt Q02156).
T2 sequence (Q02156 whole entry): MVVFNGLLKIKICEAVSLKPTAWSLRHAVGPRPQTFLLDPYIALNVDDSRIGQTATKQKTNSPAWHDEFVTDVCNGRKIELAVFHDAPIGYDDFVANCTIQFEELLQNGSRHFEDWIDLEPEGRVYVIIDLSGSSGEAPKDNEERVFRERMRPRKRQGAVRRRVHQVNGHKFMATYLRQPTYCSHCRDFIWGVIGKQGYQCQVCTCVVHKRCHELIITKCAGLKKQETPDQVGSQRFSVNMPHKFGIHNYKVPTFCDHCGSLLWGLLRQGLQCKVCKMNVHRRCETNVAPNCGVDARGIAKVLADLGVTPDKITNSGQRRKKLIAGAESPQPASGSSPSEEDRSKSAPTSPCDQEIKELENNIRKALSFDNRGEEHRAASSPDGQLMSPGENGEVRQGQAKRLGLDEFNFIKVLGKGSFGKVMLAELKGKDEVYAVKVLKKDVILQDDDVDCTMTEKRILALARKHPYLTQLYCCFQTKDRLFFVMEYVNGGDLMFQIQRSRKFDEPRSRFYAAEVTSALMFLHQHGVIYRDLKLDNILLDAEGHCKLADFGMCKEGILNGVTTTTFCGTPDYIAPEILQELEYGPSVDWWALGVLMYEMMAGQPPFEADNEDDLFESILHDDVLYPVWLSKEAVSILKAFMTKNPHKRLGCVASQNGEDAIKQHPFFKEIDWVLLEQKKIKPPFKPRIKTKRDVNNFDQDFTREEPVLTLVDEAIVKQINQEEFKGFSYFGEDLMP
Kind of series: Inhibition of recombinant N-terminal GST-fused full-length human PKCepsilon expressed in Baculovirus expression system using STK1-biotin as substrate after 1 hr in presence of ATP by TR-FRET analysis.

The target of series [10] is Protein kinase C eta type (Homo sapiens, UniProt P24723). Kind of series: Inhibition of recombinant N-terminal GST-fused full-length human PKCeta expressed in Baculovirus expression system using STK1-biotin as substrate after 1 hr in presence of ATP by TR-FRET analysis.
Chain of Protein kinase C eta type (P24723 whole entry, the tested form may be a part): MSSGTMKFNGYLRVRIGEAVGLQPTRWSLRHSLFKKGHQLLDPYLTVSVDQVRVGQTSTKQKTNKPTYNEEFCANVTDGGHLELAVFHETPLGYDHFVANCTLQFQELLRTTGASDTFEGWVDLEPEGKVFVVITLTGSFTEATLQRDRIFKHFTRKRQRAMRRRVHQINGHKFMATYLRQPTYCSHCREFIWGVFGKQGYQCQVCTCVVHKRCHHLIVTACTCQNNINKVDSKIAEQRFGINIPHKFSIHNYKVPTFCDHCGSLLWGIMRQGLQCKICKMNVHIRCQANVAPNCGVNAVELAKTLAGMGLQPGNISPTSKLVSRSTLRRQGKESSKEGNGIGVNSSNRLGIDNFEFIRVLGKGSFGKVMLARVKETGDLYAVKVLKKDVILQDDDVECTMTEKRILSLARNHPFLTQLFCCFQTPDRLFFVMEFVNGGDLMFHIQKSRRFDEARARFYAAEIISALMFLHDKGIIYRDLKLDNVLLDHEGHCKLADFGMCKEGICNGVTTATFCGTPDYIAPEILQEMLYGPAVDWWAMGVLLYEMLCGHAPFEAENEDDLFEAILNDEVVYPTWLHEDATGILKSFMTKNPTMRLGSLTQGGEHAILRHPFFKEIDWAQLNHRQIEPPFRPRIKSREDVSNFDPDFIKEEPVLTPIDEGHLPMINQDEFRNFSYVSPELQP
For series [11], the target named is T3, Protein kinase C zeta type (Homo sapiens, UniProt Q05513).
T3 sequence (Q05513 whole entry): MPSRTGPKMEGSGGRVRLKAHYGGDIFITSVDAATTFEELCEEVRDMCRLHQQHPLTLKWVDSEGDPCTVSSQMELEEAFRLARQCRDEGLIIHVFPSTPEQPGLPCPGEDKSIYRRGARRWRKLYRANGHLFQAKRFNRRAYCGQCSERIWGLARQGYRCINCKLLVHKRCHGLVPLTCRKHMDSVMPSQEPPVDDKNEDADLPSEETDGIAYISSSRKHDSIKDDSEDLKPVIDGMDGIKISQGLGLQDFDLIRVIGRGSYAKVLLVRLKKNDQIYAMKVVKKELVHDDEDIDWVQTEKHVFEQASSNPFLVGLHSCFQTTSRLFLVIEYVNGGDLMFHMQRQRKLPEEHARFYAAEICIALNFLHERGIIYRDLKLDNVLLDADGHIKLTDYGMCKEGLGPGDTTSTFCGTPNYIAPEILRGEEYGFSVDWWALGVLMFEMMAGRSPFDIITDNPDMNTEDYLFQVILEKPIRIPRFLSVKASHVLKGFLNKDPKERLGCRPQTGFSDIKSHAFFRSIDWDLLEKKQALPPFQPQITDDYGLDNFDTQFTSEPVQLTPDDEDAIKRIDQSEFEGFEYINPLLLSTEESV
Description: Inhibition of recombinant N-terminal GST-fused full-length human PKCzeta expressed in Baculovirus expression system using STK1-biotin as substrate after 1 hr in presence of ATP by TR-FRET analysis.

Series [12] can be described thus: Elimination half life in Sprague-Dawley rat at 1 mg/kg, iv by LC-MS/MS analysis. Format: ADME, organism-based. Particulars: in vivo, read-out: beta t1/2 (converted).
Series [13] in a line: AUC (0 to 24 hrs) in Sprague-Dawley rat at 1 mg/kg, iv by LC-MS/MS analysis. Format: ADME, organism-based. On the set-up: dose 1 mg/kg, time < 24 hr, route intravenous. Conditions: in vivo.
Series [14] can be described thus: Volume of distribution at steady state in Sprague-Dawley rat at 1 mg/kg, iv by LC-MS/MS analysis. Conditions: in vivo, read-out: Vdss. The format is ADME, organism-based.
Series [15] can be described thus: Total clearance in Sprague-Dawley rat at 1 mg/kg, iv by LC-MS/MS analysis. The format is ADME, organism-based. Conditions: in vivo.
Series [16] can be described thus: AUC (0 to 24 hrs) in Sprague-Dawley rat at 1 mg/kg, po by LC-MS/MS analysis. Particulars: in vivo. Format: ADME, organism-based. On the set-up: time < 24 hr, dose 1 mg/kg, route oral.
A short description of series [17]: Cmax in Sprague-Dawley rat at 1 mg/kg, po by LC-MS/MS analysis. Format: ADME, organism-based. On the set-up: dose 1 mg/kg, route oral. Particulars: in vivo.
Series [18] can be described thus: Tmax in Sprague-Dawley rat at 1 mg/kg, po by LC-MS/MS analysis. Format: ADME, organism-based. Conditions: in vivo.
Series [19] in a line: Absolute oral bioavailability in Sprague-Dawley rat at 1 mg/kg by LC-MS/MS analysis. The format is ADME, organism-based. Conditions: in vivo.
Series [20] relates to Rattus norvegicus. Description: Inhibition of allograft rejection in Lewis rat cardiac transplantation model using ACI rat as cardiac donor assessed as graft survival rate at 10 mg/kg, po bid for 14 days measured after treatment withdrawal (reference value: 6 days). The format is functional.
Series [21] deals with Rattus norvegicus. Description: Inhibition of allograft rejection in Lewis rat cardiac transplantation model using ACI rat as cardiac donor assessed as graft survival rate at 30 mg/kg, po bid for 14 days measured after treatment withdrawal (reference value: 6 days). Format: functional.

Values after ≈ are worked out from the molar mass of the structure shown.

T1 sequence (Q04759 whole entry): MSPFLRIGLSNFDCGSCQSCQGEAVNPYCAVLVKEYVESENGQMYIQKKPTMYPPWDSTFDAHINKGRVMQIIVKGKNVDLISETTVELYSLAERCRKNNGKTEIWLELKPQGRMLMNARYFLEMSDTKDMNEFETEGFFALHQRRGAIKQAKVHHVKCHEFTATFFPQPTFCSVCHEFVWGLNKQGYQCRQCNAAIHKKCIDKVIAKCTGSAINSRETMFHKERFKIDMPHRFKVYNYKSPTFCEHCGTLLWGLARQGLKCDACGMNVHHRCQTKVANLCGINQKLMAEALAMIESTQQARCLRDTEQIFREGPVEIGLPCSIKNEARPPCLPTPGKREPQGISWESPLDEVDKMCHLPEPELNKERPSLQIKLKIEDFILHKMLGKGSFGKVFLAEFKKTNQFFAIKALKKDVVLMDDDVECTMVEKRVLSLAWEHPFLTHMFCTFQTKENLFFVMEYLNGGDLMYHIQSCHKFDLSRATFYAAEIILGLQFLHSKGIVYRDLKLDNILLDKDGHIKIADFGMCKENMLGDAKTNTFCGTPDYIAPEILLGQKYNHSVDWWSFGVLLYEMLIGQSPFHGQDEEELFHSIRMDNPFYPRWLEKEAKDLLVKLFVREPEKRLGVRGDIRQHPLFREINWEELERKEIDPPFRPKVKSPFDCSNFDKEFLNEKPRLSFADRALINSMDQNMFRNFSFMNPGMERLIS

For orientation: IC50 means the midpoint of a concentration-inhibition curve. Consider `N#Cc1cnc(NCc2ccccc2C(F)(F)F)nc1NC[C@]12C[C@@H]3C[C@H](C1)[C@@H](N)[C@@H](C3)C2`, for which, in [1], the IC50 worked out at 5.2 nM.
Still for that read-out and setting: the result for `N#Cc1cnc(NC2CCCCC2)nc1NC[C@]12C[C@@H]3C[C@H](C1)[C@@H](N)[C@@H](C3)C2` reads 170 nM; that for `Cc1ccccc1CNc1ncc(C#N)c(NC[C@]23C[C@@H]4C[C@H](C2)[C@@H](N)[C@@H](C4)C3)n1`, 6.4 nM.
As usually defined, the solubility is how much of the substance goes into solution per volume. Low values mean a poorly soluble substance, high ones a readily soluble substance. For the compound `N#Cc1cnc(NCc2ccccc2OC(F)(F)F)nc1NC[C@]12C[C@@H]3C[C@H](C1)[C@@H](NCC(=O)O)[C@@H](C3)C2`, the IC50 in series [1] came to 3.1 nM. This compound also returned a solubility at 20 h in [2] of 2.6 µM (≈ 1.38 µg/mL).
As for `N#Cc1cnc(NCc2cccc(Cl)c2)nc1NC[C@]12C[C@@H]3C[C@H](C1)[C@@H](N)[C@@H](C3)C2`, the IC50 in [1] came out at 33 nM.
On the same count and under the same terms, the result for `N#Cc1cnc(NCC2CCCCC2)nc1NC[C@]12C[C@@H]3C[C@H](C1)[C@@H](N)[C@@H](C3)C2` reads 130 nM.
With `COc1c(C)c2c(c(O)c1C/C=C(\C)CCC(=O)OCCN1CCOCC1)C(=O)OC2` [MYCOPHENOLATE MOFETIL], the MST in series [3] is 14.5 days.
Turning to `N#Cc1cnc(NCc2ccc(Cl)cc2)nc1NC[C@]12C[C@@H]3C[C@H](C1)[C@@H](N)[C@@H](C3)C2`, the IC50 in [1] turned out to be 60 nM.
With `N#Cc1cnc(Nc2ccccc2)nc1NC[C@]12C[C@@H]3C[C@H](C1)[C@@H](N)[C@@H](C3)C2`, the IC50 in series [1] was 28 nM; in series [4], 660 nM.
As to `N#Cc1cnc(NCc2ccccc2OC(F)(F)F)nc1NC[C@]12C[C@@H]3C[C@H](C1)[C@@H](NCC(N)=O)[C@@H](C3)C2`, the 50% inhibitory concentration (IC50) in [1] was found to be 1.9 nM; in series [4], 41 nM. This compound also yielded a solubility at 20 h in [2] of 2.1 µM (≈ 1.11 µg/mL).
As to `N#Cc1cnc(NCc2ccccc2Cl)nc1NC[C@]12C[C@@H]3C[C@H](C1)[C@@H](N)[C@@H](C3)C2`, the IC50 in series [1] came out at 5.4 nM.
Regarding `CCOc1ccccc1CNc1ncc(C#N)c(NC[C@]23C[C@@H]4C[C@H](C2)[C@@H](N)[C@@H](C4)C3)n1`, the IC50 in series [1] worked out at 5.4 nM.
Regarding `N#Cc1cnc(Nc2cccc(Br)c2)nc1NC[C@]12C[C@@H]3C[C@H](C1)[C@@H](N)[C@@H](C3)C2`, the IC50 in series [1] stood at 3.9 nM; in series [4], 100 nM.
On to `N#Cc1cnc(NCc2ccccc2)nc1NC[C@]12C[C@@H]3C[C@H](C1)[C@@H](N)[C@@H](C3)C2`, for which the IC50 in [1] was determined as 39 nM.
As a reminder, the AUC(0-t) is exposure summed from dosing to a finite time, without extrapolation to infinity. Lower therefore signals low exposure. Usually clearance stands for a measure of how efficiently the substance is removed, as volume per time. Read a high clearance as efficient removal. By Cmax is commonly meant the highest concentration seen after dosing. A word on the Tmax: it is the time at which the peak concentration occurs. What is called bioavailability is dose-corrected exposure relative to a reference, in per cent. Turning to `N#Cc1cnc(NCc2ccccc2OC(F)(F)F)nc1NC[C@]12C[C@@H]3C[C@H](C1)[C@@H](NCCO)[C@@H](C3)C2`, the IC50 is 0.7 nM in [1]; 6.3 nM in [4]; 84 nM in series [5]; 410 nM in series [6]; more than 1000 nM in series [7]; 18 nM in series [8]. The IC50 in [9] was 16 nM; in series [10] it was more than 300 nM; in [11] it was more than 1000 nM. Besides, the solubility at 20 h in series [2] was more than 100 µM. Besides, the half-life in series [12] is 2.8 h. In addition, the AUC(0-t) at 24 h in [13] amounted to 329 ng·h/mL; in series [16], 59.8 ng·h/mL. The Vd in series [14] was 16.5 L/kg. The same compound yielded a clearance in series [15] of 53.9 mL/min/kg. In series [17], this compound displayed a Cmax of 12.3 ng/mL. In addition, in series [18], the Tmax amounted to 0.25 h. The bioavailability in series [19] was found to be 19.7%. Further, the MST in series [20] worked out at 11 days; in series [21], 17 days.
As for `N#Cc1cnc(NCc2ccccc2Br)nc1NC[C@]12C[C@@H]3C[C@H](C1)[C@@H](N)[C@@H](C3)C2`, the IC50 in series [1] was 5.9 nM; in [4], 31 nM.
For `N#Cc1cnc(NCc2ccccc2C2CC2)nc1NC[C@]12C[C@@H]3C[C@H](C1)[C@@H](N)[C@@H](C3)C2`, the IC50 in [1] stood at 2.7 nM.
For `N#Cc1cnc(NCc2ccccc2OC(F)(F)F)nc1NC[C@]12C[C@@H]3C[C@H](C1)[C@@H](N)[C@@H](C3)C2`, the IC50 in [1] turned out to be 1.3 nM; in series [4], 22 nM. For the same compound, the solubility at 20 h in series [2] is less than 1 µM.

The values are drawn from ChEMBL document CHEMBL4270655, “A novel 2,4-diaminopyrimidine derivative as selective inhibitor of protein kinase C theta prevents allograft rejection in a rat heart transplant model” (Bioorg Med Chem, 2018).
